From PubChem BioAssay (NCI)
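The compound was tested at five concentrations on cells cultured in 96-well plates, with a 48-hour exposure period. GI50: concentration for 50% inhibition of growth. TGI marks complete inhibition of growth.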

Tests used:
Test in all cases: NCI-60 cell line screen, 48 h
UACC-62 melanoma = system: UACC-62 melanoma
HL-60(TB) leukemia = system: HL-60(TB) leukemia
LOX IMVI melanoma = system: LOX IMVI melanoma
SNB-75 CNS = system: SNB-75 CNS
CAKI-1 renal = system: CAKI-1 renal
RPMI-8226 leukemia = system: RPMI-8226 leukemia
A498 renal = system: A498 renal
T-47D breast = system: T-47D breast
U251 CNS = system: U251 CNS
786-0 renal = system: 786-0 renal
MALME-3M melanoma = system: MALME-3M melanoma
SK-MEL-28 melanoma = system: SK-MEL-28 melanoma
SK-MEL-5 melanoma = system: SK-MEL-5 melanoma
TK-10 renal = system: TK-10 renal
NCI/ADR-RES ovarian = system: NCI/ADR-RES ovarian
UO-31 renal = system: UO-31 renal
HCT-15 colon = system: HCT-15 colon
MOLT-4 leukemia = system: MOLT-4 leukemia
OVCAR-8 ovarian = system: OVCAR-8 ovarian
OVCAR-5 ovarian = system: OVCAR-5 ovarian
COLO 205 colon = system: COLO 205 colon
BT-549 breast = system: BT-549 breast
SNB-19 CNS = system: SNB-19 CNS
NCI-H460 lung = system: NCI-H460 lung
KM12 colon = system: KM12 colon
MCF7 breast = system: MCF7 breast
NCI-H522 lung = system: NCI-H522 lung
SK-OV-3 ovarian = system: SK-OV-3 ovarian
HOP-92 NSCLC = system: HOP-92 NSCLC
OVCAR-3 ovarian = system: OVCAR-3 ovarian
HT29 colon = system: HT29 colon
MDA-MB-231 breast = system: MDA-MB-231 breast
EKVX NSCLC = system: EKVX NSCLC
SN12C renal = system: SN12C renal
ACHN renal = system: ACHN renal
SK-MEL-2 melanoma = system: SK-MEL-2 melanoma
DU-145 prostate = system: DU-145 prostate
RXF 393 renal = system: RXF 393 renal
PC-3 prostate = system: PC-3 prostate
NCI-H23 lung = system: NCI-H23 lung
IGROV1 ovarian = system: IGROV1 ovarian
K-562 leukemia = system: K-562 leukemia
SF-295 CNS = system: SF-295 CNS
MDA-MB-435 = system: MDA-MB-435
M14 melanoma = system: M14 melanoma
A549 NSCLC = system: A549 NSCLC
OVCAR-4 ovarian = system: OVCAR-4 ovarian
SW-620 colon = system: SW-620 colon
CCRF-CEM leukemia = system: CCRF-CEM leukemia
HCT-116 colon = system: HCT-116 colon
NCI-H226 lung = system: NCI-H226 lung
UACC-257 melanoma = system: UACC-257 melanoma
HCC-2998 colon = system: HCC-2998 colon
SF-268 CNS = system: SF-268 CNS
SR leukemia = system: SR leukemia
SF-539 CNS = system: SF-539 CNS
HOP-62 NSCLC = system: HOP-62 NSCLC

Compound `O=C(O)C(/C=C/c1ccco1)=N\Nc1nc(-c2ccc(Cl)cc2)cs1` has a GI50 (UACC-62 melanoma) of 7.79 µM, a TGI (UACC-62 melanoma) of 17.7 µM and a GI50 (HL-60(TB) leukemia) of 17.1 µM. For the same compound, the TGI (HL-60(TB) leukemia) was over 50 µM, the GI50 (LOX IMVI melanoma) was 6.62 µM and the TGI (LOX IMVI melanoma) was over 50 µM. It also gave a GI50 (SNB-75 CNS) of 23.1 µM, a TGI (SNB-75 CNS) of over 50 µM and a GI50 (CAKI-1 renal) of 16.6 µM. For the same compound, the TGI (CAKI-1 renal) was over 50 µM, the GI50 (RPMI-8226 leukemia) was 15.8 µM and the TGI (RPMI-8226 leukemia) was over 50 µM. For the same compound, the GI50 (A498 renal) was over 50 µM, the TGI (A498 renal) was over 50 µM and the GI50 (T-47D breast) was 17.3 µM. The TGI (T-47D breast) was over 50 µM, the GI50 (U251 CNS) was 4.59 µM and the TGI (U251 CNS) was over 50 µM. The GI50 (786-0 renal) was 14.3 µM, the TGI (786-0 renal) was over 50 µM and the GI50 (MALME-3M melanoma) was 35.8 µM. For the same compound, the TGI (MALME-3M melanoma) was over 50 µM, the GI50 (SK-MEL-28 melanoma) was 25.7 µM and the TGI (SK-MEL-28 melanoma) was over 50 µM. It also gave a GI50 (SK-MEL-5 melanoma) of 14.8 µM, a TGI (SK-MEL-5 melanoma) of over 50 µM and a GI50 (TK-10 renal) of 31.6 µM. It also gave a TGI (TK-10 renal) of over 50 µM, a GI50 (NCI/ADR-RES ovarian) of 12.4 µM and a TGI (NCI/ADR-RES ovarian) of over 50 µM. For the same compound, the GI50 (UO-31 renal) was 12.9 µM, the TGI (UO-31 renal) was over 50 µM and the GI50 (HCT-15 colon) was 9.27 µM. For the same compound, the TGI (HCT-15 colon) was over 50 µM, the GI50 (MOLT-4 leukemia) was 8.62 µM and the TGI (MOLT-4 leukemia) was over 50 µM. The GI50 (OVCAR-8 ovarian) was 6.93 µM, the TGI (OVCAR-8 ovarian) was over 50 µM and the GI50 (OVCAR-5 ovarian) was 46.4 µM. The TGI (OVCAR-5 ovarian) was over 50 µM, the GI50 (COLO 205 colon) was 12.5 µM and the TGI (COLO 205 colon) was 45.8 µM. It also gave a GI50 (BT-549 breast) of 16.9 µM, a TGI (BT-549 breast) of over 50 µM and a GI50 (SNB-19 CNS) of 9.64 µM. The TGI (SNB-19 CNS) was over 50 µM, the GI50 (NCI-H460 lung) was 8.36 µM and the TGI (NCI-H460 lung) was over 50 µM. For the same compound, the GI50 (KM12 colon) was 11.2 µM, the TGI (KM12 colon) was over 50 µM and the GI50 (MCF7 breast) was 10.2 µM. It also gave a TGI (MCF7 breast) of 40.6 µM, a GI50 (NCI-H522 lung) of 7.61 µM and a TGI (NCI-H522 lung) of 41.3 µM. It also gave a GI50 (SK-OV-3 ovarian) of 16.1 µM, a TGI (SK-OV-3 ovarian) of over 50 µM and a GI50 (HOP-92 NSCLC) of 10.1 µM. For the same compound, the TGI (HOP-92 NSCLC) was 49.4 µM, the GI50 (OVCAR-3 ovarian) was 9.51 µM and the TGI (OVCAR-3 ovarian) was over 50 µM. It also gave a GI50 (HT29 colon) of 20.9 µM, a TGI (HT29 colon) of over 50 µM and a GI50 (MDA-MB-231 breast) of 14.7 µM. For the same compound, the TGI (MDA-MB-231 breast) was over 50 µM, the GI50 (EKVX NSCLC) was 17.1 µM and the TGI (EKVX NSCLC) was over 50 µM. The GI50 (SN12C renal) was 13.2 µM, the TGI (SN12C renal) was over 50 µM and the GI50 (ACHN renal) was 14.6 µM. The TGI (ACHN renal) was over 50 µM, the GI50 (SK-MEL-2 melanoma) was 9.45 µM and the TGI (SK-MEL-2 melanoma) was 24.8 µM. The GI50 (DU-145 prostate) was 15.8 µM, the TGI (DU-145 prostate) was over 50 µM and the GI50 (RXF 393 renal) was 10.4 µM. It also gave a TGI (RXF 393 renal) of 28.4 µM, a GI50 (PC-3 prostate) of 17.3 µM and a TGI (PC-3 prostate) of over 50 µM. It also gave a GI50 (NCI-H23 lung) of 15.2 µM, a TGI (NCI-H23 lung) of over 50 µM and a GI50 (IGROV1 ovarian) of 7.93 µM. For the same compound, the TGI (IGROV1 ovarian) was 29.6 µM, the GI50 (K-562 leukemia) was 13.5 µM and the TGI (K-562 leukemia) was over 50 µM. The GI50 (SF-295 CNS) was 0.842 µM, the TGI (SF-295 CNS) was 4.23 µM and the GI50 (MDA-MB-435) was 11.3 µM. For the same compound, the TGI (MDA-MB-435) was over 50 µM, the GI50 (M14 melanoma) was 12.7 µM and the TGI (M14 melanoma) was over 50 µM. It also gave a GI50 (A549 NSCLC) of 16 µM, a TGI (A549 NSCLC) of over 50 µM and a GI50 (OVCAR-4 ovarian) of 9.41 µM. The TGI (OVCAR-4 ovarian) was over 50 µM, the GI50 (SW-620 colon) was 22.5 µM and the TGI (SW-620 colon) was over 50 µM. The GI50 (CCRF-CEM leukemia) was 3.26 µM, the TGI (CCRF-CEM leukemia) was over 50 µM and the GI50 (HCT-116 colon) was 11.6 µM. It also gave a TGI (HCT-116 colon) of over 50 µM, a GI50 (NCI-H226 lung) of 9.41 µM and a TGI (NCI-H226 lung) of 25.4 µM. The GI50 (UACC-257 melanoma) was 16.8 µM, the TGI (UACC-257 melanoma) was over 50 µM and the GI50 (HCC-2998 colon) was 14.2 µM. The TGI (HCC-2998 colon) was over 50 µM, the GI50 (SF-268 CNS) was 11.1 µM and the TGI (SF-268 CNS) was over 50 µM. For the same compound, the GI50 (SR leukemia) was 4.83 µM, the TGI (SR leukemia) was over 50 µM and the GI50 (SF-539 CNS) was 14.6 µM. For the same compound, the TGI (SF-539 CNS) was over 50 µM, the GI50 (HOP-62 NSCLC) was 16.5 µM and the TGI (HOP-62 NSCLC) was over 50 µM.
For `CCCCCCCCCCCCCCCCCCOc1ccccc1CC(=O)OCC[N+](C)(C)C`, the GI50 (UACC-62 melanoma) was 1.57 µM, the TGI (UACC-62 melanoma) was 3.51 µM and the GI50 (T-47D breast) was 2.06 µM. The TGI (T-47D breast) was 4.89 µM, the GI50 (SK-MEL-28 melanoma) was 1.63 µM and the TGI (SK-MEL-28 melanoma) was 3.57 µM. The GI50 (NCI/ADR-RES ovarian) was 9.84 µM, the TGI (NCI/ADR-RES ovarian) was 35.7 µM and the GI50 (HCT-15 colon) was 2.94 µM. The TGI (HCT-15 colon) was 11.5 µM, the GI50 (OVCAR-5 ovarian) was 1.45 µM and the TGI (OVCAR-5 ovarian) was 2.89 µM. For the same compound, the GI50 (MDA-MB-231 breast) was 1.57 µM, the TGI (MDA-MB-231 breast) was 3.21 µM and the GI50 (EKVX NSCLC) was 2.17 µM. The TGI (EKVX NSCLC) was 5.4 µM, the GI50 (ACHN renal) was 1.75 µM and the TGI (ACHN renal) was 3.72 µM. The GI50 (DU-145 prostate) was 1.71 µM, the TGI (DU-145 prostate) was 3.09 µM and the GI50 (SF-295 CNS) was 2.03 µM. For the same compound, the TGI (SF-295 CNS) was 4.52 µM, the GI50 (UACC-257 melanoma) was 2.34 µM and the TGI (UACC-257 melanoma) was 6.34 µM.
